Results taken from patent publication US7375168B2, “Protein compatible methods and compounds for controlling the morphology and shrinkage of silica derived from polyol-modified silanes” (McMaster University, priority 2002, dated 2008).
Where two headings read alike, the source gives them in different places. Ends that are not written are not given here.

Tests used:
[1] = target: T1, Src kinase, human recombinant (Homo sapiens, UniProt P12931); assay: Src PTK inhibition, free and entrapped in GLTES/DGS silica, TR-FRET detection of peptide phosphorylation; format: biochemical; conditions: substrate P1716, ATP as in FIG. 29
T1 construct: purchased Sigma-Aldrich (Oakville, ON) S5439; host or cells: insect cells

[2] = target: T2, dihydrofolate reductase (DHFR) (Escherichia coli, UniProt P0ABQ4); format: binding, E. coli; conditions: for elution time: 20 nM compounds, 100 nM fluorescein, 2 mM ammonium acetate; for elution / retention time: column with 50 pmol DHFR initial loading (FIG. 19 Panel B), compounds infused at 20 nM, fluorescein 100 nM
T2 construct: made in house

[3] = Src entrapped in GLTES/DGS derived silica, read-out: IC50 Entrapped in Silica
[4] = free Src in solution, read-out: IC50 Solution
[5] = FIG. 22 Panel A, column cut from one continuously filled capillary
[6] = FIG. 22 Panel B, second column from the same capillary

Row | Compound | IC50 [1, 3] | IC50 [1, 4] | elution time [2, 5] | elution time [2, 6] | elution / retention time [2]
1 | COc1cc2ncnc(Nc3ccc(Oc4ccccc4)cc3)c2cc1OC [Src Kinase Inhibitor I, 4-(4-phenoxyanilino)-6,7-dimethoxyquinazoline] | 0.6 to 0.8 µM | 0.5 to 0.7 µM | – | – | –
2 | O=c1ccc2ccccc2o1 [coumarin] | – | – | 2.7 min | 2.6 min | 2 min
3 | Nc1nc2ncc(CNc3ccc(C(=O)N[C@@H](CCC(=O)O)C(=O)O)cc3)nc2c(=O)[nH]1 [folic acid] | – | – | 8.9 min | 8.4 min | 7 min
4 | YIYGSFK [YIYGSFK] | 1000 to 1400 µM | 800 to 1200 µM | – | – | –
